Common to all, as to assay type: cell-based
One assay has as its system Pseudomonas aeruginosa. Kind of assay: MIC against a single isolate (Example 26). The following applies: read-out: P. aeruginosa MIC. As to the method: (§1) Bacterial strains evaluated in this study include Escherichia coli, Klebsiella spp, Serratia marcescens, Proteus mirabilis/vulgaris, Citrobacter spp, Providencia spp, Morganella morganii, Pseudomonas aeruginosa, Staphylococcus aureus (MRSA only), and Enterococcus faecalis. Nu-8 test solutions are adjusted to pH 3.5 with citric acid, and MIC is evaluated per the CLSI methods in Mueller-Hinton broth supplemented accordingly to facilitate growth of specific strains.
(§2) MIC was determined as per Example 9 using LAI-101, LAI-102, Nu-10, LAI-105, LAI-106, Nu-3, and Nu-8 against a single isolate of Escherichia coli. Pseudomonas aeruginosa, Staphylococcus aureus (MRSA only), and Candida Albicans. For all microbe species, the LAI-101, LAI-102, Nu-10, LAI-105, and LAI-106 all perform at least as well as, and in many experiments better than, Nu-8 and Nu-3, which are both already quite active compounds.

Assay [1] concerns Staphylococcus aureus (MRSA only). Kind of assay: MIC against a single isolate (Example 26). The following applies: read-out: S. aureus MIC. As for the experimental part: as §1, §2
In the next assay the test system is Escherichia coli. The assay can be described thus: MIC against a single isolate (Example 26). The following applies: read-out: E. coli MIC. As to the method: as §1, §2
The test system of a further assay is Candida Albicans. Kind of assay: MIC against a single isolate (Example 26). The following applies: read-out: C. albicans MIC. As to the method:
as §1, §2

In the next assay the test system is E. coli (ATCC 25922). Kind of assay: Time kill assay in saline at pH 3.5 (Example 27). The following applies: for Log10 CFU/mL: pH 3.5. As to the method:
Log10 5 CFU of E. coli (ATCC 25922) were suspended in saline. Additionally, a sample of the saline only was prepared as a vehicle control (V.C.). Solutions of Nu-3, Nu-8, and Nu-10 at varying concentrations were adjusted to pH 3.5 with citric acid and added to the E. coli suspensions. At each time point (0, 1, 2.5, 5, 10, and 20 minutes), the treated bacterial suspensions were plated and incubated for 24 hrs, and each plate was read to determine the CFU count.
Tables 12-14 provide the time kill assay data for Nu-3 (Table 12), Nu-8 (Table 13) and Nu-10 (Table 14) against E. coli.

Read-outs that look alike come from different tables or passages of the source. Where only a bound is given, the exact number is not on record here.

One may read the MIC as the lowest concentration found to suppress growth. As for `CC(C)COP(=O)(O)OC[C@H]1O[C@@H](n2ccc(N)nc2=O)C[C@@H]1OP(=O)(O)OCC(C)C` [LAI-101, ((2R,3S,5R)-5-(4-amino-2-oxopyrimidin-1(2H)-yl)-3-((hydroxy(isobutoxy)phosphoryl)-oxy)tetrahydrofuran-2-yl)methyl isobutyl hydrogen phosphate], the MIC was 5000 µg/mL in the assay with Pseudomonas aeruginosa, 5000 µg/mL in assay [1], 5000 µg/mL with Escherichia coli and 50 mg/mL with Candida Albicans.

As for `CCCCOP(=O)(O)OC[C@H]1O[C@@H](n2ccc(N)nc2=O)[C@H](OC)[C@@H]1OP(=O)(O)OCCCC` [Nu-10, ((2R,3R,4R,5R)-5-(4-amino-2-oxopyrimidin-1(2H)-yl)-3-((butoxy(hydroxy)phosphoryl)oxy)-4-methoxytetrahydrofuran-2-yl)methyl butyl hydrogen phosphate], the “Log10 CFU/mL” value in the assay on E. coli (ATCC 25922) (0.1% solution, 0 min) is 5.20 Log10 CFU/mL; in the assay with E. coli (ATCC 25922) (0.1% solution, 1 min), 3.78 Log10 CFU/mL; with E. coli (ATCC 25922) (0.1% solution, 2.5 min) it was 3.38 Log10 CFU/mL; in the assay on E. coli (ATCC 25922) (0.1% solution, 5 min) it was 2.57 Log10 CFU/mL; in the assay with E. coli (ATCC 25922) (0.1% solution, 10 min) it was 0.00 Log10 CFU/mL; in the assay on E. coli (ATCC 25922) (0.1% solution, 20 min), 0.00 Log10 CFU/mL. The “Log10 CFU/mL” value in the assay with E. coli (ATCC 25922) (0.5% solution, 0 min) amounted to 5.20 Log10 CFU/mL; with E. coli (ATCC 25922) (0.5% solution, 1 min) it was 2.51 Log10 CFU/mL; with E. coli (ATCC 25922) (0.5% solution, 2.5 min) it was 0.00 Log10 CFU/mL; in the assay on E. coli (ATCC 25922) (0.5% solution, 5 min), 0.00 Log10 CFU/mL; with E. coli (ATCC 25922) (0.5% solution, 10 min), 0.00 Log10 CFU/mL; with E. coli (ATCC 25922) (0.5% solution, 20 min), 0.00 Log10 CFU/mL. Also, the “Log10 CFU/mL” value is 5.20 Log10 CFU/mL in the assay with E. coli (ATCC 25922) (2.5% solution, 0 min); 0.00 Log10 CFU/mL with E. coli (ATCC 25922) (2.5% solution, 1 min); 0.00 Log10 CFU/mL in the assay on E. coli (ATCC 25922) (2.5% solution, 2.5 min); 0.00 Log10 CFU/mL with E. coli (ATCC 25922) (2.5% solution, 5 min); 0.00 Log10 CFU/mL with E. coli (ATCC 25922) (2.5% solution, 10 min); 0.00 Log10 CFU/mL in the assay with E. coli (ATCC 25922) (2.5% solution, 20 min). In addition, the “time to complete kill of the bacteria” value in the assay on E. coli (ATCC 25922) (concentration of 2.5%) is at most 1 min. For the same compound, the MIC was found to be 5000 µg/mL in the assay on Pseudomonas aeruginosa (single isolate), 5000 µg/mL in assay [1] (single isolate), 1000 µg/mL in the assay on Escherichia coli (single isolate) and 5 mg/mL with Candida Albicans (single isolate).

For the compound `CCCCOP(=O)(O)OC[C@H]1O[C@@H](n2cnc3c(N)ncnc32)[C@H](OC)[C@@H]1OP(=O)(O)OCCCC` [LAI-106, ((2R,3R,4R,5R)-5-(6-amino-9H-purin-9-yl)-3-((butoxy(hydroxy)phosphoryl)oxy)-4-methoxytetrahydrofuran-2-yl)methyl butyl hydrogen phosphate], the minimal inhibitory concentration (MIC) with Pseudomonas aeruginosa (single isolate) turned out to be 5000 µg/mL; in assay [1] (single isolate), 5000 µg/mL; in the assay with Escherichia coli (single isolate), 1000 µg/mL; in the assay with Candida Albicans (single isolate) it was 25 mg/mL.

As for `Nc1ncnc2c1ncn2[C@H]1C[C@H](OP(=O)(O)OC2CCCCC2)[C@@H](COP(=O)(O)OC2CCCCC2)O1` [LAI-105, ((2R,3S,5R)-5-(6-amino-9H-purin-9-yl)-3-(((cyclohexyloxy)(hydroxy)phosphoryl)oxy)tetrahydrofuran-2-yl)methyl cyclohexyl hydrogen phosphate], the MIC is 5000 µg/mL in the assay with Pseudomonas aeruginosa (single isolate), above 5000 µg/mL in assay [1] (single isolate), above 5000 µg/mL in the assay on Escherichia coli (single isolate) and above 5 mg/mL in the assay on Candida Albicans (single isolate).

Regarding `Nc1ccn([C@H]2C[C@H](OP(=O)(O)OCc3ccccc3)[C@@H](COP(=O)(O)OCc3ccccc3)O2)c(=O)n1` [LAI-102, ((2R,3S,5R)-5-(4-amino-2-oxopyrimidin-1(2H)-yl)-3-(((benzyloxy)(hydroxy)-phosphoryl)oxy)tetrahydrofuran-2-yl)methyl benzyl hydrogen phosphate], the MIC with Pseudomonas aeruginosa was 25000 µg/mL; in assay [1], 25000 µg/mL; in the assay on Escherichia coli, 5000 µg/mL; with Candida Albicans, 50 mg/mL.
